Values after ≈ are worked out from the molar mass of the structure shown. Like-named read-outs stand apart in the source and are kept apart here. Residues, ends and D or L forms follow the SMILES beside them. No end group written: not given here.
Columns and labels:
S. aureus (Xen36) = assay: 96-well plate screening of surface conjugated AMPs for biofilm inhibition; type: cell-based; conditions: AMP tethered on BA coating, polypropylene 96-well plate, vs uncoated pp
Protocol: (§1) Screening and Identification of Surface Conjugated AMPs with Anti-Biofilm Activity on a 96-Well Plate Bioluminescence-tagged bacterial strains used in this study included S. aureus (Xen36), P. aeruginosa (PAO1.lux), E. coli (E38.lux), and S. saprophyticus (ATCC 15305). Bacteria were cultured in LB, with shaking at 250 rpm, at 37° C. Bacterial growth was monitored using a spectrophotometer at the optical density of 600 nm (OD600). S. aureus Xen36 was purchased from PerkinElmer Inc.™ while P. aeruginosa PAO1.lux and E. coli E38.lux were generated by conjugating in plasmids that constitutively-expressed lux reporter genes^[40]. The biofilm inhibitory activity of AMPs conjugated onto coated polypropylene surfaces were evaluated in a static microtitre plate assay as previously described with some modifications^[41]. For all experiments, 96-well Costar™ polypropylene plates (Corning™) were used. An overnight culture of selected bacterial strains in LB was diluted to an OD600=0.01 in TSB or basal medium 2 (BM2) supplemented with 0.1% or 0.4% glucose and 0.5 mM MgSO4, (the biofilm growth medium for different bacteria is listed in TABLE 1).
(§2) For inhibition experiments, 100 μL of the diluted overnight culture was added to each well in the plate coated with control coating and AMP coating, respectively. After overnight growth under static condition at 37° C., planktonic cells were removed, adhered biomass rinsed three times with distilled water and subsequently the remaining adhered total biomass was quantified by measuring the luminescence (Total white light) using the Synergy H1™ multimode microtitre plate reader (BioTek™). The remaining adhered S. saprophyticus biomass was quantified using the crystal violet (CV) staining. Briefly, each well was added and incubated with 125 μL of 0.1% (v/v) CV solution for 30 minutes at room temperature with moderate shaking. Then, CV was discarded, and each well was rinsed three times with distilled water. The remaining CV stain was resuspended in 150 μL of 70% ethanol for 30 minutes at room temperature with moderate shaking and then quantified by measuring OD59, using the Synergy H1™ multimode microplate plate reader (BioTek™). The percent biofilm inhibition was calculated in relation to the amount of biofilm grown in the absence of the coating (defined as 100%) and the media sterility control (defined as 0% growth). The experiment was repeated 3 times with 3 technical replicates per biological replicate.

[1] = test system: S. saprophyticus (ATCC 15305); assay: as above; type: cell-based; conditions: AMP tethered on BA coating, polypropylene 96-well plate, 24 h, vs uncoated pp
Protocol: as §1, §2

S. aureus = test system: S. aureus
Excerpt: (§3) Ultra-high molecular weight poly(N,N-dimethylacrylamide) (uhPDMA) and high molecular weight poly(N,N-dimethylacrylamide) (hPDMA) were synthesized by atom transfer radical polymerization 391. N-(3-Aminopropyl) methacrylamide hydrochloride (APMA) (98%) was purchased from Polysciences™, USA and was used as supplied. All other reagents including 1, 1, 4, 7, 10, 10-hexamethyl triethylene tetramine (HMTETA) (97%), Tris[2-(dimethylamino)ethyl]amine (Me6TREN) 97%, methyl 2-chloropropionate (97%), CuCl (99%), CuCl2 (99%), 1-thioglycerol (97%) were purchased from Sigma-Aldrich™ (Oakville, ON). A single-side-polished silicon wafer (University Wafer™, Boston, MA) deposited with titanium was prepared by e-beam evaporation of titanium. The process was progressed in a home-assembled Evaporator 2000™ system equipped with a quartz crystal microbalance to monitor the film thickness and a cryo pump to reach high-vacuum (10^−7-10^−6 Torr) condition. After deposition, the substrates were washed with Milli-Q water™, dried via a nitrogen gun, and stored for further usage. SurFlash™I.V. Catheter Cat. #SR*FF1451, #SR*FF2419 (14 Gauge and 24 Gauge) made of polyurethane (PU), were purchased from Terumo™. […] Pure products were finally characterized by analytical reverse phase high performance liquid chromatography (RP-HPLC) and liquid chromatography-mass spectrometry (LC-MS). The broth microdilution method with minor modifications for cationic peptides was used for measuring the MICs of peptides.

E. coli = test system: E. coli
Excerpt: as §3

S. saprophyticus = test system: S. saprophyticus
Excerpt: as §3

P. aeruginosa = test system: P. aeruginosa
Excerpt: as §3

P. aeruginosa (PAO1.lux) = assay: 96-well plate screening of surface conjugated AMPs for biofilm inhibition; type: cell-based; conditions: AMP tethered on BA coating, polypropylene 96-well plate, vs uncoated pp
Protocol: as §1, §2

S. epidermidis = assay: Antimicrobial activity of BA-AMPs coating against planktonic bacteria; type: cell-based; conditions: MHB medium, 24 h, coated PP wells
Protocol: The uhPDMA was prepared at a concentration of 36 mg mL^−1 in sodium acetate buffer (50 mM, pH=5). Dopamine was freshly prepared at a concentration of 12 mg mL^−1 in sodium acetate buffer (50 mM, pH=5) before each experiment. Sodium periodate (NaIO4) was freshly prepared at a concentration of 28 mg mL-1 in sodium acetate buffer (50 mm, pH=5). The dopamine solution was then mixed with uhPDMA solution with a volume ratio of 1:5 (dopamine:uhPDMA). Sodium periodate solution was then added to generate a final concentration of uhPDMA at 30 mg mL^−1, dopamine at 2 mg mL^−1, and NaIO4 at 0.9 mg mL^−1. Mixed solution (200 μL) was added into the wells of 96-well polypropylene plate. The plate was placed onto a rocking platform with shaking at 50 rpm for 2 hr. The coated plate was then rinsed by Milli-Q™ water and dried for further characterization. Peptide solutions (200 μL, 0.25 mg/mL in 10 mM phosphate buffer, pH ˜8) were added into the wells and incubated for 24 h. The peptide-conjugated plate were rinsed with Milli-Q™ water thoroughly and dried under argon flow. […] After 24 hrs growth under shaking condition at room temperature, bacteria culture (100 μL) was transferred to sterile clear polystyrene plate and the optical density was read using UV-vis spectrometer at wavelength 595 nm. […]

E. coli (E38.lux) = assay: 96-well plate screening of surface conjugated AMPs for biofilm inhibition; type: cell-based; conditions: AMP tethered on BA coating, polypropylene 96-well plate, vs uncoated pp
Protocol: as §1, §2

Row | Compound | reduction of biofilm formation (S. aureus (Xen36)) [%] | reduction of biofilm formation [1] [%] | MIC S. aureus (S. aureus) [µg/mL] | MIC E. coli (E. coli) [µg/mL] | MIC S. saprophyticus (S. saprophyticus) [µg/mL] | MIC P. aeruginosa (P. aeruginosa) [µg/mL] | reduction of biofilm formation (P. aeruginosa (PAO1.lux)) [%] | killing of planktonic S. epidermidis (S. epidermidis) | reduction of biofilm formation (E. coli (E38.lux)) [%] | MIC S. aureus (S. aureus; soluble peptide) [µg/mL] | MIC E. coli (E. coli; soluble peptide) [µg/mL] | MIC S. saprophyticus (S. saprophyticus; soluble peptide) [µg/mL] | MIC P. aeruginosa (P. aeruginosa; soluble peptide) [µg/mL]
1 | CC[C@@H](C)[C@@H](NC(=O)[C@@H](C)NC(=O)[C@@H](CCCNC(=N)N)NC(=O)[C@@H](Cc1c[nH]c2ccccc12)NC(=O)[C@@H](CCC(N)=O)NC(=O)[C@H](N)C(C)C)C(=O)N[C@H](CCCNC(=N)N)C(=O)N[C@@H](C(=O)N[C@H](CCCNC(=N)N)C(=O)N[C@@H](C(=O)N[C@@H](C(=O)N[C@H](CCCNC(=N)N)C(N)=O)[C@H](C)CC)C(C)C)C(C)C [DJK5, vqwrairvrvir] (HELM PEPTIDE1{[dV].[dQ].[dW].[dR].[dA].[dI].[dR].[dV].[dR].[dV].[dI].[dR].[am]}$$$$V2.0; N-terminus assumed) | 90.5 | 83.4 | 16 (≈ 10.3 µM) | 1.6 (≈ 1.03 µM) | 2 (≈ 1.29 µM) | 16 (≈ 10.3 µM) |  |  |  |  |  |  | 
2 | CC[C@@H](C)[C@@H](NC(=O)[C@@H](C)NC(=O)[C@@H](CCCNC(=N)N)NC(=O)[C@@H](Cc1c[nH]c2ccccc12)NC(=O)[C@@H](CCC(N)=O)NC(=O)[C@H](N)C(C)C)C(=O)N[C@H](CCCNC(=N)N)C(=O)N[C@@H](C(=O)N[C@H](CCCNC(=N)N)C(=O)N[C@@H](C(=O)N[C@@H](C(=O)N[C@H](CCCNC(=N)N)C(=O)N[C@H](CS)C(N)=O)[C@H](C)CC)C(C)C)C(C)C [DJK5C, vqwrairvrvirc-NH2] (HELM PEPTIDE1{[dV].[dQ].[dW].[dR].[dA].[dI].[dR].[dV].[dR].[dV].[dI].[dR].[dC].[am]}$$$$V2.0; N-terminus assumed) | 95.1 | ~100 | 16 (≈ 9.67 µM) | 4 (≈ 2.42 µM) | 2 (≈ 1.21 µM) | 16 (≈ 9.67 µM) | 99.1 |  |  |  |  |  | 
3 | CC[C@H](C)[C@H](NC(=O)[C@H](CCCNC(=N)N)NC(=O)[C@H](Cc1c[nH]c2ccccc12)NC(=O)[C@H](CCCNC(=N)N)NC(=O)[C@@H](N)CCCCN)C(=O)N[C@@H](CCCNC(=N)N)C(=O)N[C@H](C(=O)N[C@@H](CCCNC(=N)N)C(=O)N[C@H](C(=O)N[C@H](C(=O)N[C@@H](CCCNC(=N)N)C(=O)N[C@@H](CCCCN)C(=O)NCCC(=O)NCCC(=O)N[C@@H](CS)C(N)=O)[C@@H](C)CC)C(C)C)C(C)C [Tet20LC, KRWRIRVRVIRK-bA-bA-C—NH2] (HELM PEPTIDE1{K.R.W.R.I.R.V.R.V.I.R.K.[bAla].[bAla].C.[am]}$$$$V2.0; N-terminus assumed) | 100 | ~100 | 64 (≈ 33.5 µM) | 4 (≈ 2.09 µM) | 2 (≈ 1.05 µM) | 16 (≈ 8.38 µM) | 100 |  |  |  |  |  | 
4 | ILVRWIRWRIQWC-NH2 [3002C, ILVRWIRWRIQWC-NH2] | 93.6 |  | 32 | 16 | 8 | 128 | 32.4 |  |  |  |  |  | 
5 | KRWRIRVRVIRKC-NH2 [Tet20C, KRWRIRVRVIRKC-NH2] | 98.8 | ~100 | 64 | 4 | 2 | 8 | 99.6 |  |  |  |  |  | 
6 | RRWRIVVIRVRRC-NH2 [E6, RRWRIVVIRVRRC-NH2] | 93 |  | 64 | 8 | 4 | 32 | 98.2 | complete killing | 91.8 |  |  |  | 
7 | VRLIVAVRIWRR-NH2 [IDR-1018, VRLIVAVRIWRR-NH2] | 93.5 | 82.2 |  |  |  |  | 83.2 |  |  | 16 | 9.3 | 2 | 64
8 | rivrvrairwqv (RIVRVRAIRWQV; HELM PEPTIDE1{[dR].[dI].[dV].[dR].[dV].[dR].[dA].[dI].[dR].[dW].[dQ].[dV].[am]}$$$$V2.0; N-terminus assumed; SMILES CC[C@@H](C)[C@@H](NC(=O)[C@H](N)CCCNC(=N)N)C(=O)N[C@@H](C(=O)N[C@H](CCCNC(=N)N)C(=O)N[C@@H](C(=O)N[C@H](CCCNC(=N)N)C(=O)N[C@H](C)C(=O)N[C@@H](C(=O)N[C@H](CCCNC(=N)N)C(=O)N[C@H](Cc1c[nH]c2ccccc12)C(=O)N[C@H](CCC(N)=O)C(=O)N[C@@H](C(N)=O)C(C)C)[C@H](C)CC)C(C)C)C(C)C) [RI-DJK5] |  |  |  |  |  |  | 76.2 |  |  |  |  |  | 
9 | vqwrrirvwvir (VQWRRIRVWVIR; HELM PEPTIDE1{[dV].[dQ].[dW].[dR].[dR].[dI].[dR].[dV].[dW].[dV].[dI].[dR].[am]}$$$$V2.0; N-terminus assumed; SMILES CC[C@@H](C)[C@@H](NC(=O)[C@@H](CCCNC(=N)N)NC(=O)[C@@H](CCCNC(=N)N)NC(=O)[C@@H](Cc1c[nH]c2ccccc12)NC(=O)[C@@H](CCC(N)=O)NC(=O)[C@H](N)C(C)C)C(=O)N[C@H](CCCNC(=N)N)C(=O)N[C@@H](C(=O)N[C@H](Cc1c[nH]c2ccccc12)C(=O)N[C@@H](C(=O)N[C@@H](C(=O)N[C@H](CCCNC(=N)N)C(N)=O)[C@H](C)CC)C(C)C)C(C)C) [DJK6] |  | 83.5 |  |  |  |  | 58.8 |  |  |  |  |  | 

From patent US20240301218A1, “Polymeric Antifouling Coating with Antimicrobial Peptides” (THE UNIVERSITY OF BRITISH COLUMBIA, priority 2021, published 2024)
